Results taken from patent publication US4727090A, “Process for preparing and therapeutical applications of the 2,4,6-triiodophenol” (Bislak, S.A., priority 1983, dated 1988).
Read-outs that look alike come from different tables or passages of the source.

Legend:
vascular wall = experiment: Vascular wall distensibility by echo-Doppler in cardiovascular patients (antiatherosclerotic action); type: in vivo; conditions: 30 mg/day intramuscular
Text: (§1) The technology used to show the hemodynamic changes was of the non-invasivetype, as in this way experiments can be repeated and are completely innoxious for the patient. Of all the non-invasive methods of diagnosis we selected the most reliable of actual conditions, which is the method of ultrasounds (echo and Doppler's effects). The bidimensional echocardiography in real time, combined with pulsatile Doppler and the bidimensional vascular echography combined with pulsatile Doppler hemodynamic, are actually the two most reliable non-invasive techniques for the study of the anatomic changes and macroscopic hemodynamics with regard to the cardiovascular apparatus. That's why we used for the study of the clinical effects of the 2,4,6-triiodophenol an echo-Doppler trade mark ATL (Mark V), being the transmission frequency of 3 MHz, as well as a continuous Doppler trade mark SONICAID of 4 and 8 MHz.
(§2) Patients were divided in four statistically acceptable groups (50 in each group), comparing the results obtained with this medicament before, during and after the treatment.
(§3) Methodologically there are practiced echographical cuts in real time of the heart, big vases, supra-aortic trunks, abdominal aorta, portal and caval systems and iliac and femoral arteries, obtaining fluxmetric samples Doppler in all the mentioned cardiac cavities and blood vessels to study the sense of the flow, outflow (stream) or volume of flow and the hemodynamic features of the sanguineous flow.
(§4) Hereunder we expose the clinical results obtained after the administration during three months of the 2,4,6-triiodophenol in 200 cardiovascular patients.
(§5) Sick persons were divided in 4 groups; (1) 50 patients with cerebral vascular insufficiency, (2) 50 patients with coronary insufficiency, (3) 50 patients with hepatic insufficiency and (4) 50 patients with peripheral vascular insufficiency of the lower extremities. All these persons received an intramuscular administration, a dosage of 30 mg/day of 2,4,6-triiodophenol, carrying out controls at the first, second and third month of all angiohemodynamic parameters, supposing a total of 600 controls (150 per each group after the three months).

vascular surface = experiment: Vascular caliber by echo-Doppler in cardiovascular patients (vasodilatory action); type: in vivo; conditions: 30 mg/day intramuscular
Text: as §1, §2, §3, §4, §5

fat in the blood = experiment: Fat in the blood in cardiovascular patients (hypocholesterinemic action); type: in vivo; conditions: 3rd month, 30 mg/day intramuscular
Experimental: as §4, §5

[1] = tested on: acetic acid induced pullings; experiment: Writhing syndrome test (acetic acid); type: in vivo, mice; conditions: 10 mg/kg oral; for inhibition at 10 mg/kg: Mus musculus, po, read-out: % INHIB. (pullings)
Experimental: Irritant substance: acetic acid at 0.5% injected via intraperitoneal.
Foundation of the method consists in provoking a dolorous syndrome by pulling and torsion of the stomach and the hind legs of the animals.
These pullings or stretchings are calculated during a certain time, using it as the measure of the provoked ache.
Mice of about 22 g by weight were used, animals were left under abstinence during 24 hours before carrying out the test.
Mice were previously selected as to each individual response to the dolorous stimulus provoked by an intraperitoneal injection of 0.2 ml of an acetic acid aqueous solution at the 0.5%. Valid animals for realizing the test are those which respond within a margin of 15-35 pullings in about 5 to 15 minutes after the injection. The remaining animals are not useful.
Medication is realized via oral with the help of an esophageal cannula.
White lot: Administration of 0.1 ml of CMC 1% for each 10 g of corporal weight.
2,4,6-triiodophenol lot: Administration of 10 mg/kg of the product, suspended in CMC of 1%.
Aspirin-Lysin lot (Solusprin): Administration of 500 mg/kg aspirin, dissolved at 1%.
After medication, one has to wait 20 minutes for injecting 0.2 ml acetic acid of 0.5% via intraperitoneal, calculating the number of pullings during 5 minutes. […]
The test was carried out in 9 mice in each lot.

[2] = tested on: arthrosis and atherosclerosis patients; experiment: Summary of 175 clinic cases treated; type: in vivo
Text: Summary of 175 clinic cases treated with 2,4,6-triiodophenol.

[3] = Effects by parenteral administration compared with classical antirheumatics; type: in vivo; conditions: 1 mg/kg
[4] = cerebral atherosclerosis, 37 patients
[5] = cervical arthrosis, 34 patients
[6] = obliterant atherosclerosis, 14 patients
[7] = vertebral arthrosis, 56 patients

Oc1c(I)cc(I)cc1I [2,4,6-triiodophenol]
Distensibility, abdominal aorta, variation (Δ %) (vascular wall; 2nd month): +29% | Distensibility, caval iliac artery, variation (Δ %) (vascular wall; 2nd month): +28% | Distensibility, portal carotid aorta, variation (Δ %) (vascular wall; 2nd month): +27% | Distensibility, portal vein, variation (Δ %) (vascular wall; 2nd month): +29,5% | Distensibility, post caval system, variation (Δ %) (vascular wall; 2nd month): +12% | Distensibility, thoracic aorta, variation (Δ %) (vascular wall; 2nd month): +11% | Distensibility, abdominal aorta, variation (Δ %) (vascular wall; 3rd month): +31% | Distensibility, average value (arteries), variation (Δ %) (vascular wall; 3rd month): +26% | Distensibility, average value (veins), variation (Δ %) (vascular wall; 3rd month): +24% | Distensibility, caval iliac artery, variation (Δ %) (vascular wall; 3rd month): +29,5% | Distensibility, portal carotid aorta, variation (Δ %) (vascular wall; 3rd month): +30% | Distensibility, portal vein, variation (Δ %) (vascular wall; 3rd month): +32% | Distensibility, post caval system, variation (Δ %) (vascular wall; 3rd month): +15% | Distensibility, thoracic aorta, variation (Δ %) (vascular wall; 3rd month): +14% | Improvement of the parietal dynamic of all arteries (vascular wall; conclusions, three months): 26% | Improvement of the parietal dynamic of veins (vascular wall; conclusions, three months): 24% | Distensibility, abdominal aorta, variation (Δ %) (vascular wall; first month): +18% | Distensibility, caval iliac artery, variation (Δ %) (vascular wall; first month): +12% | Distensibility, portal carotid aorta, variation (Δ %) (vascular wall; first month): +17% | Distensibility, portal vein, variation (Δ %) (vascular wall; first month): +15% | Distensibility, post caval system, variation (Δ %) (vascular wall; first month): +7% | Distensibility, thoracic aorta, variation (Δ %) (vascular wall; first month): +7% | Vascular caliber, abdominal aorta, variation (Δ %) (vascular surface; 1st month): +6% | Vascular caliber, caval iliac artery, variation (Δ %) (vascular surface; 1st month): +8% | Vascular caliber, portal carotid aorta, variation (Δ %) (vascular surface; 1st month): +11% | Vascular caliber, portal system, variation (Δ %) (vascular surface; 1st month): -13% | Vascular caliber, postcaval system, variation (Δ %) (vascular surface; 1st month): -9% | Vascular caliber, thoracic aorta, variation (Δ %) (vascular surface; 1st month): +3% | Vascular caliber, abdominal aorta, variation (Δ %) (vascular surface; 2nd month): +11% | Vascular caliber, caval iliac artery, variation (Δ %) (vascular surface; 2nd month): +12% | Vascular caliber, portal carotid aorta, variation (Δ %) (vascular surface; 2nd month): +12% | Vascular caliber, portal system, variation (Δ %) (vascular surface; 2nd month): -23% | Vascular caliber, postcaval system, variation (Δ %) (vascular surface; 2nd month): -14% | Vascular caliber, thoracic aorta, variation (Δ %) (vascular surface; 2nd month): +7% | Vascular caliber, abdominal aorta, variation (Δ %) (vascular surface; 3rd month): +13% | Vascular caliber, caval iliac artery, variation (Δ %) (vascular surface; 3rd month): +15% | Vascular caliber, portal carotid aorta, variation (Δ %) (vascular surface; 3rd month): +13% | Vascular caliber, portal system, variation (Δ %) (vascular surface; 3rd month): -26% | Vascular caliber, postcaval system, variation (Δ %) (vascular surface; 3rd month): -13% | Vascular caliber, thoracic aorta, variation (Δ %) (vascular surface; 3rd month): +9% | Cholesterol, variation (fat in the blood): -15% | Triglycerides, variation (fat in the blood): -12% | Total No. pullings ([1]; 20'): 14 | Total No. pullings ([1]; 30'): 9 | Total No. pullings ([1]; 100'): 9 | inhibition at 10 mg/kg ([1]; 20'): 88.4% | inhibition at 10 mg/kg ([1]; 30'): 83.9% | inhibition at 10 mg/kg ([1]; 100'): 86.1% | % obtained results, B. (good) [2, 4]: 6,25% | % obtained results, E. (excellent) [2, 4]: 81,25% | % obtained results, N. (null) [2, 4]: 3,15% | % obtained results, R. (regular) [2, 4]: 9,35% | % obtained results, B. (good) [2, 5]: 3,22% | % obtained results, E. (excellent) [2, 5]: 90,34% | % obtained results, N. (null) [2, 5]: 3,22% | % obtained results, R. (regular) [2, 5]: 3,22% | % obtained results, B. (good) ([2]; hip arthrosis, 13 patients): 23,10% | % obtained results, B. (good) ([2]; knee arthrosis, 16 patients): 12,5% | % obtained results, E. (excellent) ([2]; knee arthrosis, 16 patients): 81,25% | % obtained results, R. (regular) ([2]; knee arthrosis, 16 patients): 6,25% | % obtained results, B. (good) ([2]; lumbar arthrosis, 4 patients): 25% | % obtained results, E. (excellent) ([2]; lumbar arthrosis, 4 patients): 50% | % obtained results, R. (regular) ([2]; lumbar arthrosis, 4 patients): 25% | % obtained results, E. (excellent) ([2]; obliterant arthrosis, 1 patient): 100% | % obtained results, B. (good) [2, 6]: 7,15% | % obtained results, E. (excellent) [2, 6]: 92,85% | (B) Good result, % of patients ([2]; total 175 patients): 7,43% | (B) Good result, number of patients ([2]; total 175 patients): 13 | (E) Excellent result, % of patients ([2]; total 175 patients): 82,86% | (E) Excellent result, number of patients ([2]; total 175 patients): 145 | (N) Null result, % of patients ([2]; total 175 patients): 1,71% | (N) Null result, number of patients ([2]; total 175 patients): 3 | (R) Regular result, % of patients ([2]; total 175 patients): 8,00% | (R) Regular result, number of patients ([2]; total 175 patients): 14 | % obtained results, B. (good) [2, 7]: 10,42% | % obtained results, E. (excellent) [2, 7]: 83,33% | % obtained results, R. (regular) [2, 7]: 6,25% | Effects compared with aspirin and indomethacin at therapeutic dosages [3]: comparable and even higher
